Source: US11160770B2, “Compounds, compositions and methods for treating oxidative DNA damage disorders” (Indiana University Research and Technology Corporation, priority 2011, dated 2021)

How the values were obtained:
DRG cells = experiment: FACS apoptosis assay in cisplatin treated DRG cells; assay type: cell-based; settings: cisplatin 50 μM, E3330 50 μM co-treatment, 3 days
Method: EXAMPLE. DRG cells are treated with cisplatin (50 μM), with and without co-treatment with E3330 (50 μM), for 3 days. The cells are evaluated by FACS assay and compared to control.

[1] = system: cisplatin treated neuronal cells; experiment: Trypan blue cell survival following cisplatin treatment; assay type: cell-based, rat; settings: E3330 20 μM; cisplatin 0-100 mM; trypan blue on days 11, 12, 13
Description: (§1) EXAMPLE. Assay Methods. Sensory neuronal cultures grown on Lab-Tek microscope chamber slides were processed for immunofluorescence as previously published using a peripherin antibody (1:500) and HA antibody (1:500)[28]. Images were collected in red (peripherin), green (HA), and bright-field modes. A Zeiss LSM offline browser (R4.0: Carl Zeiss Inc.; Thornwood, N.Y.) was used to determine co-localization of peripherin and HA. For trypan blue exculsion, equal volume of 0.4% (w/v) Trypan blue to cell suspension were combined, mixed and scored under phase contrast microscope. Dead cells were those that take up the trypan blue and stain blue, whereas the live cells have yellow nuclei.
Referring to FIG. 2, cells were harvested on day 1. The corresponding siRNA (100 nM) was added on day 3, and removed on day 5. E3330 (20 μM) was dosed on day 7 and remained in the cultures for 2 days. E3330 (20 μM) and/or cisplatin ([…]) are each dosed day 10 with fresh media. Trypan blue assay is performed on days 11, 12, and 13. CGRP release assay is performed on day 11. N=3, *p<0.05.

[2] = system: sensory neuronal cultures; assay type: cell-based, rat
Method: EXAMPLE. Cell Cultures. Neuronal cultures were prepared from adult male (150-175 g) Sprague-Dawley rats (Harlan, Indianapolis, Ind.) as described in the published literature. Briefly, hippocampal cells were dissociated using papain and mechanical agitation and separated by gradient centrifugation. The pellet of cells from a discontinuous gradient of Optiprep in L-15 media was washed then resuspended in 1 mL of growth media consisting of Neurobasal Medium supplemented with 0.5 mM L-glutamine, 2% B-27 Supplement minus AO, 50 mg/mL Penicillin-Streptomycin, and 5 ng/mL of Basic Fibroblast Growth Factor (BFGF). Approximately 60,000 cells were plated onto poly-D-lysine and laminin coated plates and grown for 6-14 days in 5% CO2 at 37° C. Growth medium was changed every other day. For sensory neuronal culture, cells were dissociated using collagenase and mechanical dissociation. Approximately 30,000 DRG cells were plated into each well of 12 well culture plates or onto Lab-Tek chamber slides all precoated with poly-D-lysine and laminin. The sensory neurons were maintained in F-12 media supplemented with 10% horse serum, 2 mM glutamine, 100 μg/mL normocin, 50 μg/mL penicillin, 50 μg/mL streptomycin, 50 μM 5-fluoro-2′-deoxyuridine, 150 μM uridine, and 30 ng/mL NGF in 3% CO2 at 37° C. Growth medium was changed every other day and the cells were used after 11-13 days of culture.
as §1, with “Dead cells were those that take up the trypan blue and stain blue, whereas the live cells have yellow nuclei.” left out
EXAMPLE. […] The mean % of cells surviving 24 h after exposure to IR as measured by trypan blue exclusion was evaluated. […]

CCCCCCCCC/C(=C\C1=C(C)C(=O)C(OC)=C(OC)C1=O)C(=O)O [Example 28]
apoptosis arising from cisplatin treatment (DRG cells): decrease apoptosis | cell death in cisplatin treated neuronal cells [1]: attenuate cell death | cell viability (effect on IR-induced cell death) ([2]; 20 μM E3330, 3 days prior to and throughout 3 days of radiation (10 Gy/day), 24 h after last dose): effectively blocks IR's effects | cell viability ([2]; male, Sprague-Dawley, rat, 20 μM): 51±3% | cell viability (% cells surviving, trypan blue exclusion) ([2]; male, Sprague-Dawley, rat, 6 days, 10 μM): 81±3%
